In the supplement of paper PMC4862054:

Legend:
Conditions in all cases: incubation time: 72 h
[1] = test system: BT-549; assay: drug sensitivity score (DSS), CellTiter-Glo (DSS (AUC-based score)); higher = stronger drug effect (viability inhibition or cytotoxicity); extreme values may be limits of the assay
Procedure, shortened: (§1)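 Compound was dispensed into 384-well plates at 5 concentrations in 10-fold steps spanning a 10,000-fold range chosen for each compound, and 20 µl of breast cancer cell suspension was added before 72 h of incubation. CellTox Green fluorescence was read at 485/520 nm, followed by CellTiter-Glo luminescence after 10 min at room temperature. Values on each plate were normalised to 0.1 % DMSO and a positive kill control. The drug sensitivity score came from the area under the fitted dose-response curve.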

[2] = test system: MCF-10A; assay: as above
Procedure, shortened: as §1

[3] = test system: CAL-148; assay: as above
Procedure, shortened: as §1

[4] = test system: DU-4475; assay: as above
Procedure, shortened: as §1

[5] = test system: BT-474; assay: as above
Procedure, shortened: as §1

[6] = test system: HCC1937; assay: as above
Procedure, shortened: as §1

[7] = test system: HDQ-P1; assay: as above
Procedure, shortened: as §1

[8] = test system: MDA-MB-231; assay: as above
Procedure, shortened: as §1

[9] = test system: SK-BR-3; assay: as above
Procedure, shortened: as §1

[10] = test system: HCC1143; assay: as above
Procedure, shortened: as §1

[11] = test system: CAL-51; assay: as above
Procedure, shortened: as §1

[12] = test system: MDA-MB-468; assay: as above
Procedure, shortened: as §1

[13] = test system: Hs578T; assay: as above
Procedure, shortened: as §1

[14] = test system: MFM-223; assay: as above
Procedure, shortened: as §1

[15] = test system: MDA-MB-436; assay: as above
Procedure, shortened: as §1

[16] = test system: CAL-85-1; assay: as above
Procedure, shortened: as §1

[17] = test system: MDA-MB-453; assay: as above
Procedure, shortened: as §1

[18] = test system: HCC1599; assay: as above
Procedure, shortened: as §1

[19] = test system: CAL-120; assay: as above
Procedure, shortened: as §1

[20] = test system: BT-474; assay: drug sensitivity score (DSS), CellTox Green (DSS (AUC-based score)); higher = stronger drug effect (viability inhibition or cytotoxicity); extreme values may be limits of the assay
Procedure, shortened: as §1

[21] = test system: CAL-51; assay: as above
Procedure, shortened: as §1

[22] = test system: CAL-85-1; assay: as above
Procedure, shortened: as §1

Measured: drug sensitivity score

CC(=O)Nc1ccc(C(=O)Nc2ccccc2N)cc1 [Tacedinaline]
0: all assays above
